The source of these data is patent US9394297B2, “Amides as pim inhibitors” (AMGEN INC., priority 2012, dated 2016).

In one experiment the target is Pim-2 (Homo sapiens (Human), UniProt Q9P1W9). As to the kind of experiment: Pim enzyme assay (HTRF, 96-well), Pim-2. The experiment is classed as biochemical. The conditions noted are these: full length recombinant Pim-2, biotinylated-BAD (S112) peptide, 10-point curve, 45 min RT, read-out: Pim-2 IC50 IP. The source says: (§1) These cDNAs were used as templates in PCR reactions to produce full-length DNA clones of the PIMs. […] PCR products were digested with BclI and EcoRI for Pim-1 and BamHI and EcoRI for Pim-2 and ligated into a modified baculovirus transfer vector (pFastBac1) cleaved with BamHI and EcoRI. For bacterial expression, the same cleaved PCR products encoding Pim-1 or Pim-2 were ligated into a modified E. coli expression vector pET28(a) cleaved with BamHI and EcoRI. Amino-terminal hexahistidine tags followed by a thrombin cleavage site were previously added to the vectors using standard methods of molecular biology.
(§2) Recombinant baculoviruses expressing Pim-1 or Pim-2 were made using standard methods (Fastbac manual, Invitrogen, Carlsbad, Calif.). […] Cells were harvested by centrifugation and frozen at −80 C. For E. coli expression, cells carrying pET28-His6-Th-Pim-1 or pET28-His6-Th-Pim-2 were picked from a single colony and grown o/n in LB media. The o/n culture was used to inoculate a 2 liter flask with 500 mL media. This was grown o/n and used to inoculate 15-20 liters of Terrific Broth in a New Brunswick Scientific fermentor. The E. coli were grown at 37° C. to and OD600 >1.6. The temperature was dropped to 18° C. and o/n expression was induced with 0.5 mM IPTG. Cells were harvested by centrifugation and frozen at −80° C.
(§3) The slurry was centrifuged at 1,000×g for 5 min, the supernatant decanted, and the resin suspended in 40 mL of lysis wash buffer (lysis buffer at 0.75 M NaCl). This step was repeated 3× and the resin was transferred to a 2.5 cm glass column. Ten column volumes of wash buffer (0.05 M HEPES, pH 8.0, 0.1 M NaCl, 0.01 M 2-mercaptoethanol, 10%(w/v) glycerol) were applied to the resin followed by 10 column volumes of elution buffer (0.05 M HEPES, pH 8.0, 0.25 M NaCl, 0.01 M 2-mercaptoethanol, 10%(w/v) glycerol, 0.1 M imidazole). Fractions were analyzed by SDS-PAGE and those containing the protein of interest were pooled and concentrated. The concentrated protein was applied to an Amersham Superdex 75 (XK 26/60) column equilibrated in 0.025 M Tris-HCl, pH 7.5, 0.1 M NaCl, 0.01 M 2-mercaptoethanol, 10% (w/v) glycerol. […] Fractions containing the monomeric protein of interest were pooled, concentrated to ˜2 mg/mL, and stored at −80° C.
(§4) The phosphorylation of biotinylated-BAD (S112) peptide by full length recombinant Pim-1, Pim-2, or Pim-3 protein was detected with streptavidin:Allophycocyanin (APC) conjugate and a europium (Eu) labeled antibody directed against phosphorylated-BAD (S112). […] The fluorescence is directly proportional to the amount of phosphorylated BAD peptide present in the reaction. […] A reference compound was included on each assay plate in order to validate that plate; on one plate of every assay run, two additional reference compounds were included. The final buffer conditions were as follows: 60 mM Hepes, pH 7.0, 0.05% BSA, 2 mM DTT. Incubations were carried out at RT (22° C.) for 2 h for Pim-1, 1 hour and 30 min for Pim-3, and 45 min for Pim-2. The reaction was stopped by the addition of 3 mM EDTA, and fluorescence was measured by an HTRF® Rubystar microplate reader. For each plate, percent of control (POC) values were calculated for each well. Values for the IC50 IP were estimated using a standard 4-parameter logistic model.

The next experiment deals with Pim-1 (Homo sapiens (Human), UniProt P11309). As to the kind of experiment: Pim enzyme assay (HTRF, 96-well), Pim-1. The experiment is classed as biochemical. The conditions noted are these: full length recombinant Pim-1, biotinylated-BAD (S112) peptide, 10-point curve, 2 h RT, read-out: Pim-1 IC50 IP.
Description: as §1, §2, §3, §4

Each structure is given as a SMILES string. Structures can show the parent of a compound that is named as a salt.

Sequence of Pim-1 (P11309 whole entry): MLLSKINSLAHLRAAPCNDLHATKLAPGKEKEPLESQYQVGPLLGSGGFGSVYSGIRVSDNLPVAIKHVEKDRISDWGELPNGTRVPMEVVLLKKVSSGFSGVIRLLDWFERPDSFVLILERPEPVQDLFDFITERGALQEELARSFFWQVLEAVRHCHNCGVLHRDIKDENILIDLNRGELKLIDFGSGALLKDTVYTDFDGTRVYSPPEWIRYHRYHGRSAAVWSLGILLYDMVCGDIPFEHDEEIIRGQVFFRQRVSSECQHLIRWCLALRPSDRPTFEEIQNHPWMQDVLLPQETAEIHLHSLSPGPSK
Sequence of Pim-2 (Q9P1W9 whole entry): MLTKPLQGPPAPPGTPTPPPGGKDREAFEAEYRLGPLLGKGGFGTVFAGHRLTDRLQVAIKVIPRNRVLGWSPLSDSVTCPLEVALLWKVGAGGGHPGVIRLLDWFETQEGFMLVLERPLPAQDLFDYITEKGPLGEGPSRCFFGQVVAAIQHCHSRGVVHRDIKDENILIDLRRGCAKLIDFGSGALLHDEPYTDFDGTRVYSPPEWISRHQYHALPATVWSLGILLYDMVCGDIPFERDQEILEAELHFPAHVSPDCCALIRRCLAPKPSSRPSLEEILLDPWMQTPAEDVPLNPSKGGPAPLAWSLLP

As to `Cc1cccc(Oc2ccc3cccc(-c4cc5c([nH]4)CCNC5=O)c3n2)c1` [Example 43, 2-(2-(3-methylphenoxy)-8-quinolinyl)-1,5,6,7-tetrahydro-4H-pyrrolo[3,2-c]pyridin-4-one], the concentration for half-maximal inhibition (IC50) on Pim-2 was found to be 47.8 nM; on Pim-1, 17.9 nM.

In the case of `N[C@@H]1CCC[C@H](Nc2ccc3cccc(-c4cc5c([nH]4)CCNC5=O)c3n2)C1` (single isomer, unassigned) [Example 121, 2-(2-((cis-3-aminocyclohexyl)amino)quinolin-8-yl)-6,7-dihydro-1H-pyrrolo[3,2-c]pyridin-4(5H)-one], the IC50 at Pim-2 amounted to 22.6 nM; at Pim-1, 0.6 nM.

For the compound `O=C1NCCc2[nH]c(-c3cccc4cnc(Nc5ccccc5)nc34)cc21` [Example 251, 2-(2-(phenylamino)quinazolin-8-yl)-6,7-dihydro-1H-pyrrolo[3,2-c]pyridin-4(5H)-one], the half-maximal inhibitory concentration (IC50) at Pim-2 came out at 13.5 nM; on Pim-1, 8.3 nM.

`O=C1NCCc2[nH]c(-c3cccc4ccc(OCc5ccccc5)nc34)cc21` [Example 20, 2-(2-(benzyloxy)quinolin-8-yl)-6,7-dihydro-1H-pyrrolo[3,2-c]pyridin-4(5H)-one]: the IC50 was found to be 98.4 nM at Pim-2 and 38.5 nM at Pim-1.

Turning to `C[C@@H](Nc1ccc2cccc(-c3cc4c([nH]3)CCNC4=O)c2n1)c1ccccc1` [Example 111, (R)-2-(2-((1-phenylethyl)amino)quinolin-8-yl)-6,7-dihydro-1H-pyrrolo[3,2-c]pyridin-4(5H)-one], the IC50 amounted to 181 nM on Pim-2 and 19 nM on Pim-1.

Consider `Cc1nc2cccc(-c3cc4c([nH]3)CCNC4=O)c2nc1N1CCOCC1` [Example 133, 2-(2-methyl-3-morpholinoquinoxalin-5-yl)-6,7-dihydro-1H-pyrrolo[3,2-c]pyridin-4(5H)-one], for which the concentration for half-maximal inhibition (IC50) on Pim-2 stood at 99.8 nM; on Pim-1, 93.4 nM.

`O=C1NCCc2[nH]c(-c3cccc4ccc(-c5ccccc5)nc34)cc21` [Example 226, 2-(2-phenylquinolin-8-yl)-6,7-dihydro-1H-pyrrolo[3,2-c]pyridin-4(5H)-one]: the IC50 on Pim-2 worked out at 38.1 nM; at Pim-1, 25.3 nM.

Turning to `C=C(c1ccccc1)c1ccc2cccc(-c3cc4c([nH]3)CCNC4=O)c2n1` [Example 113, 2-(2-(1-phenylvinyl)quinolin-8-yl)-6,7-dihydro-1H-pyrrolo[3,2-c]pyridin-4(5H)-one], the half-inhibitory concentration (IC50) amounted to 8.1 nM on Pim-2 and 4.7 nM on Pim-1.

In the case of `O=c1[nH]ccc2[nH]c(-c3cccc4ccc(Nc5c(F)cccc5Cl)nc34)cc12` [Example 12, 2-(2-((2-chloro-6-fluorophenyl)amino)quinolin-8-yl)-1H-pyrrolo[3,2-c]pyridin-4(5H)-one], the IC50 on Pim-2 amounted to 11 nM; at Pim-1, 2 nM.

With `CS(=O)(=O)c1ccc(-c2ccc3cccc(-c4cc5c([nH]4)CCNC5=O)c3n2)c(F)c1` [Example 86, 2-(2-(2-fluoro-4-(methylsulfonyl)phenyl)quinolin-8-yl)-6,7-dihydro-1H-pyrrolo[3,2-c]pyridin-4(5H)-one], the 50% inhibitory concentration (IC50) was 143 nM at Pim-2 and 49.5 nM on Pim-1.

On to `Cc1nc2cccc(-c3cc4c([nH]3)CCNC4=O)c2nc1N[C@@H](C)C(N)=O` [Example 129, (S)-2-((3-methyl-8-(4-oxo-4,5,6,7-tetrahydro-1H-pyrrolo[3,2-c]pyridin-2-yl)quinoxalin-2-yl)amino)propanamide], for which the half-maximal inhibitory concentration (IC50) at Pim-2 worked out at 227 nM; on Pim-1, 99.3 nM.

As for `O=C1NCCc2[nH]c(-c3cccc4ccc(Cl)nc34)cc21` [Example 1, 2-(2-chloroquinolin-8-yl)-6,7-dihydro-1H-pyrrolo[3,2-c]pyridin-4(5H)-one], the IC50 stood at 636 nM at Pim-2 and 315 nM at Pim-1.

Take `Cc1nc2cccc(-c3cc4c([nH]3)CCNC4=O)c2nc1N1CCCC1` [Example 138, 2-(2-methyl-3-(pyrrolidin-1-yl)quinoxalin-5-yl)-6,7-dihydro-1H-pyrrolo[3,2-c]pyridin-4(5H)-one]: the 50% inhibitory concentration (IC50) on Pim-2 is 30.1 nM; on Pim-1 it was 34.8 nM.

For `COC(=O)[C@@H](C)Nc1nc2c(-c3cc4c([nH]3)CCNC4=O)cccc2nc1C` [Example 137, (R)-methyl 2-((3-methyl-8-(4-oxo-4,5,6,7-tetrahydro-1H-pyrrolo[3,2-c]pyridin-2-yl)quinoxalin-2-yl)amino)propanoate], the IC50 on Pim-2 came out at 74.1 nM; on Pim-1, 96.7 nM.

Take `C[C@H](Nc1ccc2cccc(-c3cc4c([nH]3)CCNC4=O)c2n1)c1ccccc1` [Example 112, (S)-2-(2-((1-phenylethyl)amino)quinolin-8-yl)-6,7-dihydro-1H-pyrrolo[3,2-c]pyridin-4(5H)-one]: the IC50 was 182 nM at Pim-2 and 29 nM at Pim-1.

Take `Cc1nc2cccc(-c3cc4c([nH]3)CCNC4=O)c2nc1N[C@H](C)C(N)=O` [Example 128, (R)-2-((3-methyl-8-(4-oxo-4,5,6,7-tetrahydro-1H-pyrrolo[3,2-c]pyridin-2-yl)quinoxalin-2-yl)amino)propanamide]: the results for the half-inhibitory concentration (IC50) at Pim-2 and at Pim-1 were 222 nM and 204 nM, respectively.

Take `O=C1NCCn2cc(-c3cccc4ccc(C(=O)N5CCOCC5)nc34)cc21` [Example 167, 7-(2-(morpholine-4-carbonyl)quinolin-8-yl)-3,4-dihydropyrrolo[1,2-a]pyrazin-1(2H)-one]: the IC50 on Pim-2 is 667 nM; on Pim-1, 671 nM.

`COC(=O)N(c1ccccc1)c1ccc2cccc(-c3cc4c([nH]3)CCNC4=O)c2n1` [Example 46, Methyl (8-(4-oxo-4,5,6,7-tetrahydro-1H-pyrrolo[3,2-c]pyridin-2-yl)-2-quinolinyl)phenylcarbamate]: the concentration for half-maximal inhibition (IC50) on Pim-2 amounted to 125 nM; at Pim-1, 58.1 nM.

In the case of `O=C1NCCc2[nH]c(-c3cccc4cnc(C5(c6ccccc6)CC5)nc34)cc21` [Example 244, 2-(2-(1-phenylcyclopropyl)quinazolin-8-yl)-6,7-dihydro-1H-pyrrolo[3,2-c]pyridin-4(5H)-one], the figures for the concentration for half-maximal inhibition (IC50) at Pim-2 and on Pim-1 were 17.9 nM and 6.9 nM, respectively.

Consider `O=C1NCC(Cc2ccccc2)c2[nH]c(-c3cccc4cccnc34)cc21` (racemic) [Example 119, rac-7-benzyl-2-(quinolin-8-yl)-6,7-dihydro-1H-pyrrolo[3,2-c]pyridin-4(5H)-one], for which the IC50 at Pim-2 worked out at 206 nM; at Pim-1, 39.4 nM.

On to `O=C1NCCc2[nH]c(-c3cccc4ccc(-c5c(F)cccc5F)nc34)cc21` [Example 231, 2-(2-(2,6-difluorophenyl)quinolin-8-yl)-6,7-dihydro-1H-pyrrolo[3,2-c]pyridin-4(5H)-one], for which the IC50 at Pim-2 came out at 91.9 nM; at Pim-1, 8.1 nM.

Turning to `O=c1[nH]cnc2[nH]c(-c3cccc4ccc(Cl)nc34)cc12` [Example 19, 6-(2-chloroquinolin-8-yl)-3H-pyrrolo[2,3-d]pyrimidin-4(7H)-one trifluoroacetate], the half-maximal inhibitory concentration (IC50) at Pim-2 came to 908 nM; at Pim-1, 133 nM.

For `COC(=O)[C@H](C)Nc1nc2c(-c3cc4c([nH]3)CCNC4=O)cccc2nc1C` [Example 136, (S)-methyl 2-((3-methyl-8-(4-oxo-4,5,6,7-tetrahydro-1H-pyrrolo[3,2-c]pyridin-2-yl)quinoxalin-2-yl)amino)propanoate], the concentration for half-maximal inhibition (IC50) on Pim-2 stood at 154 nM; on Pim-1 it was 49.5 nM.

On to `O=C1NCCc2[nH]c(-c3cccc4ccc(Oc5ccc(Cl)cc5)nc34)cc21` [Example 18, 2-(2-(4-chlorophenoxy)quinolin-8-yl)-6,7-dihydro-1H-pyrrolo[3,2-c]pyridin-4(5H)-one], for which the IC50 is 44.9 nM on Pim-2 and 15.5 nM on Pim-1.
